Data taken from publication PMC11435058, “Synthesis of New Thiazole-Privileged Chalcones as Tubulin Polymerization Inhibitors with Potential Anticancer Activities” (Pharmaceuticals, 2024).

How the values were obtained:
[1] = tested on: SW-620; assay: NCI-60 anticancer screen (SRB; single dose and five doses); details: Homo sapiens
[2] = tested on: HS 578T; assay: as above; details: Homo sapiens
[3] = tested on: CAKI-1; assay: as above; details: Homo sapiens
[4] = tested on: A498; assay: as above; details: Homo sapiens
[5] = tested on: OVCAR-5; assay: as above; details: Homo sapiens
[6] = tested on: HOP-92; assay: as above; details: Homo sapiens
[7] = tested on: NCI/ADR-RES; assay: as above; details: Homo sapiens
[8] = tested on: RXF 393; assay: as above; details: Homo sapiens
[9] = tested on: NCI-H522; assay: as above; details: Homo sapiens
[10] = tested on: SK-MEL-28; assay: as above; details: Homo sapiens
[11] = tested on: ACHN; assay: as above; details: Homo sapiens
[12] = tested on: K-562; assay: as above; details: Homo sapiens
[13] = tested on: HT29; assay: as above; details: Homo sapiens
[14] = tested on: CCRF-CEM; assay: NCI-60 anticancer screen (SRB; single dose 10 μM and five doses); details: Homo sapiens
[15] = tested on: MDA-MB-435; assay: NCI-60 anticancer screen (SRB; single dose and five doses); details: Homo sapiens
[16] = tested on: SNB-75; assay: as above
[17] = tested on: SR; assay: as above; details: Homo sapiens
[18] = tested on: IGROV1; assay: as above; details: Homo sapiens
[19] = tested on: PC-3; assay: as above; details: Homo sapiens
[20] = tested on: DU-145; assay: as above; details: Homo sapiens
[21] = tested on: OVCAR-3; assay: cells; details: Homo sapiens
[22] = tested on: KM12; assay: NCI-60 anticancer screen (SRB; single dose and five doses); details: Homo sapiens
[23] = tested on: EKVX; assay: as above; details: Homo sapiens
[24] = tested on: SF-539; assay: as above; details: Homo sapiens
[25] = tested on: SK-OV-3; assay: as above; details: Homo sapiens
[26] = tested on: MDA-MB-231/ATCC; assay: as above; details: Homo sapiens
[27] = tested on: SN12C; assay: as above; details: Homo sapiens
[28] = tested on: A549/ATCC; assay: as above; details: Homo sapiens
[29] = tested on: 60 human tumor cell lines panel; assay: NCI-60 anticancer screen, whole panel (means and ranges over the cell lines); assay type: cell-based
[30] = 48 h, read-out: Growth Percentage
[31] = five doses, mean graph midpoint over all cell lines

## Cc1[nH]c(=S)sc1C(=O)/C=C/c1cccc([N+](=O)[O-])c1 [2h, (E)-1-(4-Methyl-2-Thioxo-2,3-Dihydrothiazol-5-yl)-3-(3-Nitrophenyl)Prop-2-En-1-One]
[1]; SW-620
  GI50: 3.39 µM
  IC50: 4.07 µM
[1]; SW-620, 48 h, read-out: Growth Percentage
  activity at 10 µM: -37.8%
[1]; SW-620, read-out: LC50
  CC50: 45.7 µM
[1]; SW-620, read-out: TGI
  IC (TGI): 11 µM
[2]
  GI50: 17.4 µM
  IC50: 67.6 µM
[2]; [30]
  activity at 10 µM: 24.5%
[2]; read-out: LC50
  CC50: > 100 µM
[2]; read-out: TGI
  IC (TGI): 52.5 µM
[3]; CAKI-1
  GI50: 10.5 µM
  IC50: 20.4 µM
[3]; CAKI-1, 48 h, read-out: Growth Percentage
  activity at 10 µM: -56.5%
[3]; CAKI-1, read-out: LC50
  CC50: 51.3 µM
[3]; CAKI-1, read-out: TGI
  IC (TGI): 22.9 µM
[4]; A498
  GI50: 14.8 µM
  IC50: 29.5 µM
[4]; A498, read-out: LC50
  CC50: 55 µM
[4]; A498, read-out: TGI
  IC (TGI): 28.2 µM
[5]; OVCAR-5
  GI50: 3.63 µM
  IC50: 9.12 µM
[5]; OVCAR-5, 48 h, read-out: Growth Percentage
  activity at 10 µM: -37.4%
[5]; OVCAR-5, read-out: LC50
  CC50: 38.9 µM
[5]; OVCAR-5, read-out: TGI
  IC (TGI): 13.8 µM
[6]; HOP-92
  GI50: 3.89 µM
  IC50: 22.4 µM
[6]; HOP-92, read-out: LC50
  CC50: 44.7 µM
[6]; HOP-92, read-out: TGI
  IC (TGI): 16.6 µM
[7]
  GI50: 2.51 µM
  IC50: 4.27 µM
[7]; [30]
  activity at 10 µM: 8.19%
[7]; read-out: LC50
  CC50: > 100 µM
[7]; read-out: TGI
  IC (TGI): 5.75 µM
[8]; RXF 393
  GI50: 10.2 µM
  IC50: 24.6 µM
[8]; RXF 393, 48 h, read-out: Growth Percentage
  activity at 10 µM: -91.9%
[8]; RXF 393, read-out: LC50
  CC50: 47.9 µM
[8]; RXF 393, read-out: TGI
  IC (TGI): 22.4 µM
[9]; NCI-H522
  GI50: 5.01 µM
  IC50: 11.8 µM
[9]; NCI-H522, 48 h, read-out: Growth Percentage
  activity at 10 µM: -58.8%
[9]; NCI-H522, read-out: LC50
  CC50: 46.8 µM
[9]; NCI-H522, read-out: TGI
  IC (TGI): 17.8 µM
[10]; SK-MEL-28
  GI50: 5.5 µM
  IC50: 13.2 µM
[10]; SK-MEL-28, 48 h, read-out: Growth Percentage
  activity at 10 µM: -47%
[10]; SK-MEL-28, read-out: LC50
  CC50: 44.7 µM
[10]; SK-MEL-28, read-out: TGI
  IC (TGI): 18.2 µM
[11]
  GI50: 4.07 µM
  IC50: 6.17 µM
[11]; [30]
  activity at 10 µM: -58.4%
[11]; read-out: LC50
  CC50: 38.9 µM
[11]; read-out: TGI
  IC (TGI): 14.8 µM
[12]; K562
  GI50: 3.09 µM
  IC50: 3.72 µM
[12]; K562, 48 h, read-out: Growth Percentage
  activity at 10 µM: 13.8%
[12]; K562, read-out: LC50
  CC50: > 100 µM
[12]; K562, read-out: TGI
  IC (TGI): > 100 µM
[13]; HT-29
  GI50: 5.5 µM
  IC50: 7.24 µM
[13]; HT-29, 48 h, read-out: Growth Percentage
  activity at 10 µM: 20.4%
[13]; HT-29, read-out: LC50
  CC50: 60.3 µM
[13]; HT-29, read-out: TGI
  IC (TGI): 19.9 µM
[14]
  GI50: 2.14 µM
[14]; [30]
  activity at 10 µM: 13.8%
[14]; five-dose, Leukemia CCRF-CEM
  IC50: 3.39 µM
[14]; read-out: LC50
  CC50: > 100 µM
[14]; read-out: TGI
  IC (TGI): 6.61 µM
[15]; MDA-MB-435
  GI50: 4.57 µM
  IC50: 7.41 µM
[15]; MDA-MB-435, 48 h, read-out: Growth Percentage
  activity at 10 µM: -37%
[15]; MDA-MB-435, read-out: LC50
  CC50: 44.7 µM
[15]; MDA-MB-435, read-out: TGI
  IC (TGI): 17 µM
[16]; Homo sapiens, SNB-75
  GI50: 2.29 µM
  IC50: 8.51 µM
[16]; Homo sapiens, SNB-75, read-out: LC50
  CC50: 27.5 µM
[16]; five-dose, CNS Cancer SNB-75
  TGI: 7.41 µM
[17]
  GI50: 2.75 µM
  IC50: 3.89 µM
[17]; [30]
  activity at 10 µM: -11%
[17]; read-out: LC50
  CC50: > 100 µM
[17]; read-out: TGI
  IC (TGI): > 100 µM
[18]; IGROV-1
  GI50: 3.02 µM
  IC50: 4.9 µM
[18]; IGROV-1, 48 h, read-out: Growth Percentage
  activity at 10 µM: 10.2%
[18]; IGROV-1, read-out: LC50
  CC50: 47.9 µM
[18]; IGROV-1, read-out: TGI
  IC (TGI): 12.3 µM
[19]; PC-3
  GI50: 4.07 µM
  IC50: 8.13 µM
[19]; PC-3, 48 h, read-out: Growth Percentage
  activity at 10 µM: 8.43%
[19]; PC-3, read-out: LC50
  CC50: 56.2 µM
[19]; PC-3, read-out: TGI
  IC (TGI): 17.8 µM
[20]; DU-145
  GI50: 2.4 µM
  IC50: 3.89 µM
[20]; DU-145, 48 h, read-out: Growth Percentage
  activity at 10 µM: 8.55%
[20]; DU-145, read-out: LC50
  CC50: 23.4 µM
[20]; DU-145, read-out: TGI
  IC (TGI): 6.17 µM
[21]; OVCAR-3
  GI50: 2.4 µM
[21]; OVCAR-3, 48 h, read-out: Growth Percentage
  activity at 10 µM: -79.5%
[21]; OVCAR-3, five-dose, Ovarian Cancer OVCAR-3
  IC50: 4.37 µM
[21]; OVCAR-3, read-out: LC50
  CC50: 24 µM
[21]; OVCAR-3, read-out: TGI
  IC (TGI): 6.46 µM
[22]; KM12
  GI50: 3.63 µM
  IC50: 5.37 µM
[22]; KM12, 48 h, read-out: Growth Percentage
  activity at 10 µM: -78.4%
[22]; KM12, read-out: LC50
  CC50: 42.7 µM
[22]; KM12, read-out: TGI
  IC (TGI): 13.2 µM
[23]
  GI50: 5.75 µM
  IC50: 15.1 µM
[23]; [30]
  activity at 10 µM: 0.65%
[23]; read-out: LC50
  CC50: 46.8 µM
[23]; read-out: TGI
  IC (TGI): 19.5 µM
[24]; SF-539
  GI50: 2.19 µM
  IC50: 3.98 µM
[24]; SF-539, 48 h, read-out: Growth Percentage
  activity at 10 µM: -85.9%
[24]; SF-539, read-out: LC50
  CC50: 12.9 µM
[24]; SF-539, read-out: TGI
  IC (TGI): 4.9 µM
[25]; SK-OV-3
  GI50: 5.89 µM
  IC50: 15.1 µM
[25]; SK-OV-3, 48 h, read-out: Growth Percentage
  activity at 10 µM: 44.6%
[25]; SK-OV-3, read-out: LC50
  CC50: 45.7 µM
[25]; SK-OV-3, read-out: TGI
  IC (TGI): 18.6 µM
[26]; MDA-MB-231
  GI50: 5.25 µM
  IC50: 16.2 µM
[26]; MDA-MB-231, 48 h, read-out: Growth Percentage
  activity at 10 µM: -17.6%
[26]; MDA-MB-231, read-out: LC50
  CC50: 44.7 µM
[26]; MDA-MB-231, read-out: TGI
  IC (TGI): 17.8 µM
[27]
  GI50: 2.69 µM
  IC50: 4.37 µM
[27]; [30]
  activity at 10 µM: -25.6%
[27]; read-out: LC50
  CC50: 33.1 µM
[27]; read-out: TGI
  IC (TGI): 10.2 µM
[28]; A549
  GI50: 3.24 µM
  IC50: 4.47 µM
[28]; A549, 48 h, read-out: Growth Percentage
  activity at 10 µM: 19.5%
[28]; A549, read-out: LC50
  CC50: 55 µM
[28]; A549, read-out: TGI
  IC (TGI): 12 µM
[29]; Homo sapiens, 48 h, mean over the tested cell lines, dose of 10 μM, read-out: Mean growth percentage
  activity at 10 µM: -21.8%
[29]; [31]
  Log10GI50 _MID: -5.37 Molar
  Log10LC50 _MID: -4.34 Molar
  Log10TGI _MID: -4.82 Molar
